Paper PMC12966202 (Molecular Imaging and Biology, 2025)
Where “and” joins values, the source holds several entries; their conditions need not be identical. Equal entries are not always repeated.

Procedure: Subjects with localized known or suspected infection were recruited and provided informed consent according to guidelines of the University of Pennsylvania Institutional Review Board. […] The full study protocols are available at clinicaltrials.gov, NCT03424525 and were performed under the authority of the University of Pennsylvania Radioactive Drug Research Committee.
PET scans were acquired from head to mid-thigh over 15 min in 10 overlapping bed positions at 90 s per bed position with ~ 50% bed overlap. The first PET scan was started immediately following injection, followed by a second scan at 20 ± 3 min post-injection, and a third scan at 63 ± 4 min post-injection. Suspected infections outside of the dosimetry scan field of view were optionally imaged following the acquisition of the final dosimetry scan. Subjects had the option to void bladders between the second and third PET/CT scans and following the last scan, without urine collection. Images were reconstructed using a list-mode time-of-flight ordered subsets expectation maximization algorithm (TOF-OSEM). […] These images were reconstructed using TOF-OSEM, but were not included in the quantitative dosimetry results (Fig. 2).
Total activity in the brain, gallbladder, heart, intestines, kidneys, liver, lungs, pancreas, spleen, thyroids, and urinary bladder was assessed via PET with MIM v6.7 (MIM Software Inc.), using co-registered CT images to delineate regions of interest. To enable estimation of total activity in red bone marrow, tracer uptake and volume were measured based on activity concentrations in the 2nd to 4th lumbar vertebrae of each subject. Using a red marrow density of 1.03 g/mL and assuming that red marrow weight is 1.6% of total body weight, total red marrow activity was calculated for each subject. Time activity curves for organs were generated and in most cases fit to mono- or bi-exponential functions using OLINDA | EXM v1.1 software RRID:SCR_026835 [23]. For time activity curves that were poorly fit by exponential functions, a Riemann Sum was used to calculate numbers of disintegrations occurring in the organs. Dosimetry estimates were calculated using the Standard Adult Male phantom option in OLINDA.

[1] = average injected activity of 346 MBq (9.4 mCi)

- Effective dose equivalent (Mean ± SD, n = 4 males): 6.08E-03 ± 3.49E-04 mSv/MBq
- Mean absorbed dose estimate, Adrenals (Mean ± SD, n = 4 males): 3.47E-03 ± 1.13E-04 mSv/MBq
- Mean absorbed dose estimate, Bone (red marrow) (Mean ± SD, n = 4 males): 3.75E-03 ± 4.17E-04 mSv/MBq
- Mean absorbed dose estimate, Brain (Mean ± SD, n = 4 males): 1.37E-03 ± 3.00E-04 mSv/MBq
- Mean absorbed dose estimate, Breasts (Mean ± SD, n = 4 males): 1.95E-03 ± 8.35E-05 mSv/MBq
- Mean absorbed dose estimate, Heart wall (Mean ± SD, n = 4 males): 4.66E-03 ± 3.36E-04 mSv/MBq
- Mean absorbed dose estimate, Lower large intestine wall (Mean ± SD, n = 4 males): 2.83E-03 ± 8.88E-05 mSv/MBq
- Mean absorbed dose estimate, Lungs (Mean ± SD, n = 4 males): 5.62E-03 ± 1.05E-03 mSv/MBq
- Mean absorbed dose estimate, Muscle (Mean ± SD, n = 4 males): 2.25E-03 ± 6.29E-05 mSv/MBq
- Mean absorbed dose estimate, Osteogenic cells (Mean ± SD, n = 4 males): 3.98E-03 ± 2.42E-04 mSv/MBq
- Mean absorbed dose estimate, Ovaries (Mean ± SD, n = 4 males): 3.07E-03 ± 1.25E-04 mSv/MBq
- Mean absorbed dose estimate, Pancreas (Mean ± SD, n = 4 males): 5.27E-03 ± 2.20E-03 mSv/MBq
- Mean absorbed dose estimate, Skin (Mean ± SD, n = 4 males): 1.73E-03 ± 6.60E-05 mSv/MBq
- Mean absorbed dose estimate, Small intestine (Mean ± SD, n = 4 males): 9.29E-03 ± 2.33E-03 mSv/MBq
- Mean absorbed dose estimate, Stomach wall (Mean ± SD, n = 4 males): 2.83E-03 ± 6.34E-05 mSv/MBq
- Mean absorbed dose estimate, Testes (Mean ± SD, n = 4 males): 2.03E-03 ± 1.05E-04 mSv/MBq
- Mean absorbed dose estimate, Thymus (Mean ± SD, n = 4 males): 2.31E-03 ± 9.59E-05 mSv/MBq
- Mean absorbed dose estimate, Thyroid (Mean ± SD, n = 4 males): 5.96E-03 ± 1.73E-03 mSv/MBq
- Mean absorbed dose estimate, Total Body (Mean ± SD, n = 4 males): 2.84E-03 ± 6.24E-05 mSv/MBq
- Mean absorbed dose estimate, Upper large intestine wall (Mean ± SD, n = 4 males): 4.86E-03 ± 7.38E-04 mSv/MBq
- Mean absorbed dose estimate, Uterus (Mean ± SD, n = 4 males): 3.21E-03 ± 2.24E-04 mSv/MBq
- Mean absorbed dose estimate, Gallbladder wall (Mean ± SD, one subject with cholecystectomy removed): 5.00E-03 ± 4.43E-04 mSv/MBq
- background uptake in the brain (PET imaging, 4 adult males): low background uptake in the brain
- estimated absorbed dose in the spleen [1]: 4.1 mSv
- estimated effective dose [1]: 1.6 mSv
- estimated absorbed dose in the liver (average injected activity of 346 MBq (9.4 mCi), highest uptake organ): 4.9 mSv
Compound: COc1cc(Cc2cnc(N)nc2N)cc(OC)c1O[11CH3] [[^11C]TMP, [^11C]trimethoprim]
- Effective dose (Mean ± SD, n = 4 males): 4.53E-03 mSv/MBq and 4.53E-03 ± 2.22E-04 mSv/MBq
- Mean absorbed dose estimate, Kidneys (Mean ± SD, n = 4 males): 1.35E-02 mSv/MBq and 1.35E-02 ± 2.44E-03 mSv/MBq
- Mean absorbed dose estimate, Liver (Mean ± SD, n = 4 males): 1.43E-02 mSv/MBq and 1.43E-02 ± 1.58E-03 mSv/MBq
- Mean absorbed dose estimate, Spleen (Mean ± SD, n = 4 males): 1.18E-02 mSv/MBq and 1.18E-02 ± 4.64E-03 mSv/MBq
- Mean absorbed dose estimate, Urinary bladder wall (Mean ± SD, n = 4 males): 1.10E-02 mSv/MBq and 1.10E-02 ± 5.55E-03 mSv/MBq
